For this experiment, the target named is RORγ receptor (Homo sapiens, UniProt P51449). As to the kind of experiment: RORγ Gal4 reporter assay (Gal4-luciferase, inverse agonist activity). The conditions noted are these: Jurkat cells stably over-expressing hRORγ; Gal4-luciferase reporter; overnight incubation; read-out: RORγ Gal4, IC50. The class given is cell-based. How it is done:
General RORγ Gal4 Reporter Assay
IC50 values were determined.
In general terms: Reporter assays use an easily measured gene product as a stand-in for the process of interest.
RORγ receptor, sequence (P51449 269-508): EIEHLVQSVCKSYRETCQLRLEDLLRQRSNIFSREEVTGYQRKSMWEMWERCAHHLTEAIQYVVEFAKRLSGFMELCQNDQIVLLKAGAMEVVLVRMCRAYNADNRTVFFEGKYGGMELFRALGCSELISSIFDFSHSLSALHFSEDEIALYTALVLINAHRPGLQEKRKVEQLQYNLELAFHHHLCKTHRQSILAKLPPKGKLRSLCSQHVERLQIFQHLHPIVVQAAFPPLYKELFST
In the case of `CC(NS(=O)(=O)c1cnn(C)c1)[C@@H]1CC[C@@]2(S(=O)(=O)c3ccc(F)cc3)c3ccc(C(F)(C(F)(F)F)C(F)(F)F)cc3CC[C@@H]12` (stereo partly drawn) [Example 272, N-(1-((3R,3aS,9bS)-9b-((4-fluorophenyl)sulfonyl)-7-(perfluoropropan-2-yl)-2,3,3a,4,5,9b-hexahydro-1H-cyclopenta[a]naphthalen-3-yl)ethyl)-1-methyl-1H-pyrazole-4-sulfonamide], the IC50 came out at 27 nM. The value for `O=C(N[C@H]1CC[C@H](C(=O)O)CC1)[C@@H]1CC[C@@]2(S(=O)(=O)c3ccc(F)cc3)c3ccc(C(F)(C(F)(F)F)C(F)(F)F)cc3CC[C@@H]12` [Example 102] was 33 nM; that for `O=C(N[C@@H]1CC[C@@]2(S(=O)(=O)c3ccc(F)cc3)c3ccc(C(F)(C(F)(F)F)C(F)(F)F)cc3CC[C@@H]12)c1ccc(=O)[nH]c1` [Example 188] was 9 nM; that for `O=C([C@@H]1CC[C@@]2(S(=O)(=O)c3ccc(F)cc3)c3ccc(C(F)(C(F)(F)F)C(F)(F)F)cc3CC[C@@H]12)N1CC(F)(F)C[C@@H]1CO` [Example 64] was 37 nM. The value for `C[C@H]1CN(C(=O)[C@@H]2CC[C@@]3(S(=O)(=O)c4ccc(F)cc4)c4ccc(C(F)(C(F)(F)F)C(F)(F)F)cc4CC[C@@H]23)CC[C@@H]1C(=O)O` [Example 105] was 42 nM; that for `O=C(CO)N1CCC(O)(C(=O)N[C@@H]2CC[C@@]3(S(=O)(=O)c4ccc(F)cc4)c4ccc(C(F)(C(F)(F)F)C(F)(F)F)cc4CC[C@@H]23)CC1` [Example 256] was 4 nM. The same measure for `CC(NC(=O)c1ccncn1)[C@@H]1CC[C@@]2(S(=O)(=O)c3ccc(F)cc3)c3ccc(C(F)(C(F)(F)F)C(F)(F)F)cc3CC[C@@H]12` (stereo partly drawn) [Example 262]: 87 nM; for `NC(=O)c1c(F)cc(C(=O)N[C@@H]2CC[C@@]3(S(=O)(=O)c4ccc(F)cc4)c4ccc(C(F)(C(F)(F)F)C(F)(F)F)cc4CC[C@@H]23)cc1F` [Example 159]: 3 nM; for `CS(=O)(=O)N[C@@H]1CC[C@@]2(S(=O)(=O)c3ccc(F)cc3)c3ccc(C(F)(C(F)(F)F)C(F)(F)F)cc3CC[C@@H]12` [Example 201, N-((3R,3aS,9bS)-9b-((4-fluorophenyl)sulfonyl)-7-(perfluoropropan-2-yl)-2,3,3a,4,5,9b-hexahydro-1H-cyclopenta[a]naphthalen-3-yl)methanesulfonamide]: 7 nM. For `O=C(O)C1CC2(C1)CC(C(=O)N[C@@H]1CC[C@@]3(S(=O)(=O)c4ccc(F)cc4)c4ccc(C(F)(C(F)(F)F)C(F)(F)F)cc4CC[C@@H]13)C2` (stereo partly drawn) [Example 141], the IC50 came to 7 nM. The value for `O=C([C@@H]1CC[C@@]2(S(=O)(=O)c3ccc(F)cc3)c3ccc(C(F)(C(F)(F)F)C(F)(F)F)cc3CC[C@@H]12)N1CCS(=O)(=O)CC1` [Example 40] was 14 nM; that for `O=C(O)C1CCCC(NC(=O)[C@@H]2CC[C@@]3(S(=O)(=O)c4ccc(F)cc4)c4ccc(C(F)(C(F)(F)F)C(F)(F)F)cc4CC[C@@H]23)C1` (stereo partly drawn) [Example 98] was 22 nM; that for `CC(NS(=O)(=O)c1nc[nH]n1)[C@@H]1CC[C@@]2(S(=O)(=O)c3ccc(F)cc3)c3ccc(C(F)(C(F)(F)F)C(F)(F)F)cc3CC[C@@H]12` (stereo partly drawn) [Example 275] was 65 nM. The same measure for `O=C(N[C@@H]1CC[C@@]2(S(=O)(=O)c3ccc(F)cc3)c3ccc(C(F)(C(F)(F)F)C(F)(F)F)cc3CC[C@@H]12)[C@@H](O)Cc1c[nH]cn1` [Example 158]: 14 nM. As for `O=C(N[C@@H]1CC[C@@]2(S(=O)(=O)c3ccc(F)cc3)c3ccc(C(F)(C(F)(F)F)C(F)(F)F)cc3CC[C@@H]12)C1(O)CCS(=O)(=O)CC1` [Example 144], the IC50 is 40 nM. The same measure for `CS(=O)(=O)N1CC(O)(C(=O)N[C@@H]2CC[C@@]3(S(=O)(=O)c4ccc(F)cc4)c4ccc(C(F)(C(F)(F)F)C(F)(F)F)cc4CC[C@@H]23)C1` [Example 168]: 28 nM; for `CC(C)(N)[C@H](N)C(=O)N[C@@H]1CC[C@@]2(S(=O)(=O)c3ccc(F)cc3)c3ccc(C(F)(C(F)(F)F)C(F)(F)F)cc3CC[C@@H]12` [Example 198]: 17 nM. The same measure for `CNC(=O)CN(CC(=O)NC)[C@@H]1CC[C@@]2(S(=O)(=O)c3ccc(F)cc3)c3ccc(C(F)(C(F)(F)F)C(F)(F)F)cc3CC[C@@H]12` [Example 209, 2,2′-(((3R,3aS,9bS)-9b-((4-fluorophenyl)sulfonyl)-7-(perfluoropropan-2-yl)-2,3,3a,4,5,9b-hexahydro-1H-cyclopenta[a]naphthalen-3-yl)azanediyl)bis(N-methylacetamide)]: 166 nM.

Usually IC50 stands for the concentration at which inhibition is half-maximal.

These data come from patent US10435369B2, “Tricyclic sulfones as ROR gamma modulators” (BRISTOL-MYERS SQUIBB COMPANY, priority 2016, dated 2019).
